Source: patent US12528814B2, “Bifunctional degraders of interleukin-1 receptor-associated kinases and therapeutic use thereof” (NURIX THERAPEUTICS, INC., priority 2020, dated 2026)
Read-outs that look alike come from different tables or passages of the source.

Legend:
IRAK4 [1] = molecular target: T1, IRAK4 (Homo sapiens (Human), UniProt Q9NWZ3); experiment: IRAK4 Biochemical HTRF Kinase Assay; settings: read-out: IRAK4 HTRF biochemical: IC50
Method: IRAK4 Biochemical HTRF Kinase Assay
The binding capacities of certain bifunctional compounds of Formula (I) were determined using the CisBio HTRF KinEASE STK S1 Kit (#62ST1PEB, contains 5× Kinase buffer, 1× Detection Buffer, anti-phospho-serine/threonine-cryptate, Streptavidin-XL665, and STK-S1), which measures the phosphorylation of a biotinylated peptide substrate by IRAK4, according to the manufacturer's protocol. […] 2 μl of a reaction solution containing 5 μM STK-S1, 10 mM ATP, and 10 mM MgCl2 were added to each well to a final volume of 10 μl. Assay controls include wells containing kinase with no compound (DMSO only) and wells containing no kinase and no compound (DMSO only). The reactions were allowed to proceed at ambient temperature for 90 minutes. […] The plates were incubated for 60 minutes at ambient temperature and then read on an Envision Multilabel Reader (PerkinElmer). […] For IC50 determination, the compounds were tested at sixteen concentrations in duplicate and curve-fitting was performed by non-linear regression analysis using GraphPad Priam.
Target sequence in this assay (Q9NWZ3 whole entry, species assumed): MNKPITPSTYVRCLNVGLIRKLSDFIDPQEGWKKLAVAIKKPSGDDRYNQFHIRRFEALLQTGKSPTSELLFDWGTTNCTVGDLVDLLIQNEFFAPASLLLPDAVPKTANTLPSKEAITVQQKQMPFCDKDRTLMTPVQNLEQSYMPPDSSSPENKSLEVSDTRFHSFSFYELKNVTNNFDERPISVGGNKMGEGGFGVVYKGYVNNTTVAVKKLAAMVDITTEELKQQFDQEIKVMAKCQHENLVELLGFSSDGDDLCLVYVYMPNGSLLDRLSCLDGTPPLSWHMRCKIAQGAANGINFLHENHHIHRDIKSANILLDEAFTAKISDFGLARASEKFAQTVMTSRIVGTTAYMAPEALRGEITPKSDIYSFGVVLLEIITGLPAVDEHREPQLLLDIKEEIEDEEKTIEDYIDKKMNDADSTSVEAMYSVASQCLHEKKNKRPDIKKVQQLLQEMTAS

IRAK4 [2] = molecular target: T1, IRAK4; experiment: IRAK4 Degradation HiBiT Assay; settings: HiBiT-tagged Jurkat cells, 4 hrs; for Dmax: Jurkat; for DC50: read-out: Cellular IRAK4 HiBiT: DC50
Target sequence in this assay (Q9NWZ3 whole entry): as the sequence (Q9NWZ3 whole entry, species assumed) above
Method: Compound dilution series (11-point, 3.16-fold dilutions in DMSO, columns 1-11 and 12-22) at 500× the final required concentrations were prepared in Labcyte LDV 384-well plates (cat. no. LP-0200) using a Labcyte Echo 550 Liquid Handler. The 500× solutions ranged from 5 mM to 0.5 μM (final assay concentration range 10 μM to 0.1 nM). Using the Echo, the 500× solutions were stamped into white, 384-well assay plates (Corning, cat. no. 3570) at 60 nL/well. […] C-terminal HiBiT-tagged Jurkat cells (polyclonal cell line or clone 8D5) were plated at 1×10^6 cells/mL, 30 μL/well (3×10^4 cells/well) in complete RPMI (10% FBS, 1% L-glutamine). Cells were incubated for 4 hrs at 32° C./6% CO2.
Following incubation, 30 uL of complete Nano-Glo HiBiT Lytic Detection Reagent (Nano-Glo HiBiT Lytic Buffer with 1:50 Nano-Glo HiBiT Lytic Substrate and 1:100 LgBiT Protein; Promega cat. no. N3040) was added. Cells were further incubated for 10 min at room temperature (RT). Luminescence units (LU) were read on an EnVision plate reader (Perkin Elmer, 0.1 sec per well). Percent IRAK4 remaining per sample was calculated as follows:
Using Graphpad Prism, % IRAK4 remaining values were plotted as a function of compound concentration.

[3] = read-out: Cellular IRAK4 HiBiT: Dmax, Table 5, multiple runs
[4] = read-out: Cellular IRAK4 HiBiT: Dmax, Table 4

For `CNc1cc(-c2ccc3cc(C#N)cnn23)ncc1-c1nnc(C23CCC(NC(=O)[C@H]4C[C@H]4C(=O)N[C@H](C(=O)N4C[C@H](O)C[C@H]4C(=O)N[C@@H](C)c4ccc(-c5scnc5C)cc4)C(C)(C)C)(CC2)CC3)s1` (mixture of isomers) [Example 142, (1RS,2SR)—N1-(4-(5-(6-(3-cyanopyrrolo[1,2-b]pyridazin-7-yl)-4-(methylamino)pyridin-3-yl)-1,3,4-thiadiazol-2-yl)bicyclo[2.2.2]octan-1-yl)-N2—((S)-1-((2S,4R)-4-hydroxy-2-(((S)-1-(4-(4-methylthiazol-5-yl)phenyl)ethyl)carbamoyl)pyrrolidin-1-yl)-3,3-dimethyl-1-oxobutan-2-yl)cyclopropane-1,2-dicarboxamide], the IC50 (IRAK4 [1]; Table 5, multiple runs) was 1.9 nM, the Dmax (IRAK4 [2]; [3]) was 115% and the DC50 (IRAK4 [2]; Table 5, multiple runs) was 258 nM.

`CNc1cc(-c2ccc3cc(C#N)cnn23)ncc1-c1nnc(C23CCC(NC(=O)[C@H]4CC[C@H]4C(=O)N[C@H](C(=O)N4C[C@H](O)C[C@H]4C(=O)N[C@@H](C)c4ccc(-c5scnc5C)cc4)C(C)(C)C)(CC2)CC3)s1` (mixture of isomers) [Example 144, (1RS,2SR)—N1-(4-(5-(6-(3-cyanopyrrolo[1,2-b]pyridazin-7-yl)-4-(methylamino)pyridin-3-yl)-1,3,4-thiadiazol-2-yl)bicyclo[2.2.2]octan-1-yl)-N2—((S)-1-((2S,4R)-4-hydroxy-2-(((S)-1-(4-(4-methylthiazol-5-yl)phenyl)ethyl)carbamoyl)pyrrolidin-1-yl)-3,3-dimethyl-1-oxobutan-2-yl)cyclobutane-1,2-dicarboxamide] showed an IC50 (IRAK4 [1]; Table 5, multiple runs) of 1.5 nM, a Dmax (IRAK4 [2]; [3]) of 89% and a DC50 (IRAK4 [2]; Table 5, multiple runs) of 429 nM.

Work on `CNc1cc(-c2ccc3cc(C#N)cnn23)ncc1-c1nnc([C@H]2CC[C@H](NC(=O)[C@H]3CC[C@H]3C(=O)N[C@H](C(=O)N3C[C@H](O)C[C@H]3C(=O)N[C@@H](C)c3ccc(-c4scnc4C)cc3)C(C)(C)C)CC2)s1` (racemic) [Example 143, (1RS,2SR)—N1-((1r,4R)-4-(5-(6-(3-cyanopyrrolo[1,2-b]pyridazin-7-yl)-4-(methylamino)pyridin-3-yl)-1,3,4-thiadiazol-2-yl)cyclohexyl)-N2—((S)-1-((2S,4R)-4-hydroxy-2-(((S)-1-(4-(4-methylthiazol-5-yl)phenyl)ethyl)carbamoyl)pyrrolidin-1-yl)-3,3-dimethyl-1-oxobutan-2-yl)cyclobutane-1,2-dicarboxamide] yielded an IC50 (IRAK4 [1]; Table 5, multiple runs) of 1.6 nM, a Dmax (IRAK4 [2]; [3]) of 37% and a DC50 (IRAK4 [2]; Table 5, multiple runs) of 870 nM.

`CNc1cc(-c2ccc3cc(C#N)cnn23)ncc1-c1nnc(C2CCC(NC(=O)[C@H]3C[C@H]3C(=O)N[C@H](C(=O)N3C[C@H](O)C[C@H]3C(=O)N[C@@H](C)c3ccc(-c4scnc4C)cc3)C(C)(C)C)CC2)s1` (mixture of isomers) [Example 147, (1RS,2SR)—N1-((1r,4R)-4-(5-(6-(3-cyanopyrrolo[1,2-b]pyridazin-7-yl)-4-(methylamino)pyridin-3-yl)-1,3,4-thiadiazol-2-yl)cyclohexyl)-N2—((S)-1-((2S,4R)-4-hydroxy-2-(((S)-1-(4-(4-methylthiazol-5-yl)phenyl)ethyl)carbamoyl)pyrrolidin-1-yl)-3,3-dimethyl-1-oxobutan-2-yl)cyclopropane-1,2-dicarboxamide] showed an IC50 (IRAK4 [1]; Table 5, multiple runs) of 1.5 nM, a Dmax (IRAK4 [2]; [3]) of 80% and a DC50 (IRAK4 [2]; Table 5, multiple runs) of 508 nM.

`N#Cc1cnn2c(-c3cc(NC4CCOCC4)c(-c4nnc(C56CCC(NC(=O)CCOCCOCCNc7cccc8c7C(=O)N(C7CCC(=O)NC7=O)C8=O)(CC5)CC6)s4)cn3)ccc2c1` (centres unmarked) [Example 1, N-(4-(5-(6-(3-cyanopyrrolo[1,2-b]pyridazin-7-yl)-4-((tetrahydro-2H-pyran-4-yl)amino)pyridin-3-yl)-1,3,4-thiadiazol-2-yl)bicyclo[2.2.2]octan-1-yl)-3-(2-(2-((2-(2,6-dioxopiperidin-3-yl)-1,3-dioxoisoindolin-4-yl)amino)ethoxy)ethoxy)propanamide] was tested, and the IC50 (IRAK4 [1]; Table 4) was 1.8 nM, the IC50 (IRAK4 [1]; Table 5, multiple runs) was 2 nM and the Dmax (IRAK4 [2]; [4]) was 65%. The Dmax (IRAK4 [2]; [3]) was 60%, the DC50 (IRAK4 [2]; Table 4) was 23.8 nM and the DC50 (IRAK4 [2]; Table 5, multiple runs) was 22.9 nM.

With `N#Cc1cnn2c(-c3cc(NC4CCOCC4)c(-c4nnc(C56CCC(NC(=O)CCOCCOCCOCCNc7cccc8c7C(=O)N(C7CCC(=O)NC7=O)C8=O)(CC5)CC6)s4)cn3)ccc2c1` (centres unmarked) [Example 2, N-(4-(5-(6-(3-cyanopyrrolo[1,2-b]pyridazin-7-yl)-4-((tetrahydro-2H-pyran-4-yl)amino)pyridin-3-yl)-1,3,4-thiadiazol-2-yl)bicyclo[2.2.2]octan-1-yl)-3-(2-(2-(2-((2-(2,6-dioxopiperidin-3-yl)-1,3-dioxoisoindolin-4-yl)amino)ethoxy)ethoxy)ethoxy)propanamide] the IC50 (IRAK4 [1]; Table 4) was 1.6 nM, the IC50 (IRAK4 [1]; Table 5, multiple runs) was 1.8 nM and the Dmax (IRAK4 [2]; [4]) was 71%. For the same compound, the Dmax (IRAK4 [2]; [3]) was 75%, the DC50 (IRAK4 [2]; Table 4) was 27.8 nM and the DC50 (IRAK4 [2]; Table 5, multiple runs) was 27.2 nM.

`CC(C)Nc1cc(-c2ccc3cc(C#N)cnn23)ncc1-c1nnc([C@H]2CC[C@H](NC(=O)CCOCCOCCNc3cccc4c3C(=O)N(C3CCC(=O)NC3=O)C4=O)CC2)s1` (some centres unmarked) [Example 3, N-((1r,4r)-4-(5-(6-(3-cyanopyrrolo[1,2-b]pyridazin-7-yl)-4-(isopropylamino)pyridin-3-yl)-1,3,4-thiadiazol-2-yl)cyclohexyl)-3-(2-(2-((2-(2,6-dioxopiperidin-3-yl)-1,3-dioxoisoindolin-4-yl)amino)ethoxy)ethoxy)propanamide] was tested, and the IC50 (IRAK4 [1]; Table 4) was 2.3 nM, the IC50 (IRAK4 [1]; Table 5, multiple runs) was 1.9 nM and the Dmax (IRAK4 [2]; [4]) was 91%. The Dmax (IRAK4 [2]; [3]) was 90%, the DC50 (IRAK4 [2]; Table 4) was 32 nM and the DC50 (IRAK4 [2]; Table 5, multiple runs) was 30.1 nM.

In the case of `CC(C)Nc1cc(-c2ccc3cc(C#N)cnn23)ncc1-c1nnc([C@H]2CC[C@H](NC(=O)CCOCCOCCOCCNc3cccc4c3C(=O)N(C3CCC(=O)NC3=O)C4=O)CC2)s1` (some centres unmarked) [Example 4, N-((1r,4r)-4-(5-(6-(3-cyanopyrrolo[1,2-b]pyridazin-7-yl)-4-(isopropylamino)pyridin-3-yl)-1,3,4-thiadiazol-2-yl)cyclohexyl)-3-(2-(2-(2-((2-(2,6-dioxopiperidin-3-yl)-1,3-dioxoisoindolin-4-yl)amino)ethoxy)ethoxy)ethoxy)propanamide], the IC50 (IRAK4 [1]; Table 4) is reported as 1.8 nM, the IC50 (IRAK4 [1]; Table 5, multiple runs) is reported as 1.7 nM and the Dmax (IRAK4 [2]; [4]) is reported as 97%. The Dmax (IRAK4 [2]; [3]) was 98%, the DC50 (IRAK4 [2]; Table 4) was 51.8 nM and the DC50 (IRAK4 [2]; Table 5, multiple runs) was 52.5 nM.

`CC(C)Nc1cc(-c2ccc3cc(C#N)cnn23)ncc1-c1nnc(N2CCN(C(=O)CCCCCCCNc3ccc4c(c3)C(=O)N(C3CCC(=O)NC3=O)C4=O)CC2)s1` (centres unmarked) [Example 5, 7-(5-(5-(4-(8-((2-(2,6-dioxopiperidin-3-yl)-1,3-dioxoisoindolin-5-yl)amino)octanoyl)piperazin-1-yl)-1,3,4-thiadiazol-2-yl)-4-(isopropylamino)pyridin-2-yl)pyrrolo[1,2-b]pyridazine-3-carbonitrile] was tested, and the IC50 (IRAK4 [1]; Table 4) was 3.8 nM, the IC50 (IRAK4 [1]; Table 5, multiple runs) was 3.9 nM and the Dmax (IRAK4 [2]; [4]) was 57%. The Dmax (IRAK4 [2]; [3]) was 57%, the DC50 (IRAK4 [2]; Table 4) was 84 nM and the DC50 (IRAK4 [2]; Table 5, multiple runs) was 71.2 nM.

`CC(C)Nc1cc(-c2ccc3cc(C#N)cnn23)ncc1-c1nnc(N2CCN(C(=O)CCCCCNc3ccc4c(c3)C(=O)N(C3CCC(=O)NC3=O)C4=O)CC2)s1` (centres unmarked) [Example 6, 7-(5-(5-(4-(6-((2-(2,6-dioxopiperidin-3-yl)-1,3-dioxoisoindolin-5-yl)amino)hexanoyl)piperazin-1-yl)-1,3,4-thiadiazol-2-yl)-4-(isopropylamino)pyridin-2-yl)pyrrolo[1,2-b]pyridazine-3-carbonitrile] was tested, and the IC50 (IRAK4 [1]; Table 4) was 2.6 nM, the IC50 (IRAK4 [1]; Table 5, multiple runs) was 2.6 nM and the Dmax (IRAK4 [2]; [4]) was 82%. It also gave a Dmax (IRAK4 [2]; [3]) of 69%, a DC50 (IRAK4 [2]; Table 4) of 74.6 nM and a DC50 (IRAK4 [2]; Table 5, multiple runs) of 70 nM.

`CC(C)Nc1cc(-c2ccc3cc(C#N)cnn23)ncc1-c1nnc(N2CCN(C(=O)CCOCCNc3cccc4c3C(=O)N(C3CCC(=O)NC3=O)C4=O)CC2)s1` (centres unmarked) [Example 7, 7-(5-(5-(4-(3-(2-((2-(2,6-dioxopiperidin-3-yl)-1,3-dioxoisoindolin-4-yl)amino)ethoxy)propanoyl)piperazin-1-yl)-1,3,4-thiadiazol-2-yl)-4-(isopropylamino)pyridin-2-yl)pyrrolo[1,2-b]pyridazine-3-carbonitrile] was tested, and the IC50 (IRAK4 [1]; Table 4) was 9.2 nM, the IC50 (IRAK4 [1]; Table 5, multiple runs) was 9.2 nM and the Dmax (IRAK4 [2]; [4]) was 39%. It also gave a Dmax (IRAK4 [2]; [3]) of 39%, a DC50 (IRAK4 [2]; Table 4) of 228 nM and a DC50 (IRAK4 [2]; Table 5, multiple runs) of 229 nM.

In the case of `CC(C)Nc1cc(-c2ccc3cc(C#N)cnn23)ncc1-c1nnc(N2CCN(C(=O)CCCCCCCNc3cccc4c3C(=O)N(C3CCC(=O)NC3=O)C4=O)CC2)s1` (centres unmarked) [Example 8, 7-(5-(5-(4-(8-((2-(2,6-dioxopiperidin-3-yl)-1,3-dioxoisoindolin-4-yl)amino)octanoyl)piperazin-1-yl)-1,3,4-thiadiazol-2-yl)-4-(isopropylamino)pyridin-2-yl)pyrrolo[1,2-b]pyridazine-3-carbonitrile], the IC50 (IRAK4 [1]; Table 4) is reported as 0.8 nM, the IC50 (IRAK4 [1]; Table 5, multiple runs) is reported as 0.8 nM and the Dmax (IRAK4 [2]; [4]) is reported as 100%. It also gave a Dmax (IRAK4 [2]; [3]) of 100%, a DC50 (IRAK4 [2]; Table 4) of 53.8 nM and a DC50 (IRAK4 [2]; Table 5, multiple runs) of 53.8 nM.

`CNc1cc(-c2ccc3cc(C#N)cnn23)ncc1-c1nnc(C23CCC(NC(=O)C4CCN(c5cccc6c5C(=O)N(C5CCC(=O)NC5=O)C6=O)CC4)(CC2)CC3)s1` (centres unmarked) [Example 136, N-(4-(5-(6-(3-cyanopyrrolo[1,2-b]pyridazin-7-yl)-4-(methylamino)pyridin-3-yl)-1,3,4-thiadiazol-2-yl)bicyclo[2.2.2]octan-1-yl)-1-(2-(2,6-dioxopiperidin-3-yl)-1,3-dioxoisoindolin-4-yl)piperidine-4-carboxamide] showed a Dmax (IRAK4 [2]; [3]) of 35% and a DC50 (IRAK4 [2]; Table 5, multiple runs) of 21.9 nM.
